The test system of assay [1] is soft rot of Chinese cabbage. Briefly: Test for controlling soft rot of Chinese cabbage, Example 4 / Comparative Example 4 (field, cultivar Ouraku 60). The assay is classed as in vivo. The following applies: 500 g ai/10 a, 150 L/10 a sprayed onto planting holes before planting, 49 days after start. An excerpt:
(§1) Frequency of the disease=[sigma(number of plants with the onset of the disease at each severity level*index of the onset of the disease)/(plants examined*4)]*100
(§2) Disease control value=[1-(frequency of the disease in the treated lot/frequency of the disease in the non-treated lot)]*100
(§3) • 0: No onset • 1: Onset in some of outer leaves (shippable) • 2: Onset in outer leaves and some of head leaves (by removing damaged parts, the resulting cabbage can be shipped as small cabbage but is ranked as grade B). • 3: Most of head leaves are inflicted with the onset of the disease or with severer damages (not shippable) • 4: Whole cabbage plant is inflicted with the onset of the disease and is dead.
442 g/lkresoxim-methyl (STROBY FLOWABLE [trade name], manufactured by BASF) was adjusted to 500 g ai/10a (0.5 g/m^2, 1131 ml Product/10a) as the amount of the active ingredient and to 150 L/10a as the volume of diluent water.
70% w/w thiophanate methyl (Topsin M WF [trade name], manufactured by Nippon Soda Co., Ltd.) was adjusted to 1000 g ai/10a (1 g/m^2, 1429 g Product/10a) as the amount of the active ingredient and to 150 L/10a as the volume of diluent water.
50% w/w boscalid (Cantus DF [trade name], manufactured by BASF) was adjusted to 500 g ai/10a (0.5 g/m^2; 1000 g Product/10a) as the amount of the active ingredient and to 150 L/10a as the volume of diluent water.
50% w/w procymidone (Sumilex WP [trade name], manufactured by Sumitomo Chemical Agro) was adjusted to 500 g ai/10a (0.5 g/m^2, 1000 g Product/10a) as the amount of the active ingredient and to 150 L/10a as the volume of diluent water.
400 g/l iprodione (Rovral 500 Aqua [trade name], manufactured by Bayer Crop Science Co., Ltd.) was adjusted to 500 g ai/10a (0.5 g/m^2, […] Product/10a) as the amount of the active ingredient and to 150 L/10a as the volume of diluent water.
200 g/l fludioxonil (Seibia FLOWABLE [trade name], manufactured by Syngenta Japan K.K.) was adjusted to 500 g ai/10a (0.5 g/m^2, 2500 ml Product/10a) as the amount of the active ingredient and to 150 L/10a as the volume of diluent water.
400 g/l mepanipyrim (Flupika PLOWABLE [trade name], manufactured by Nippon Soda Co., Ltd.) was adjusted to 500 g ai/10a (0.5 g/m^2, 1250 ml Product/10a) as the amount of the active ingredient and to 150 L/10a as the volume of diluent water.
After spreading an agricultural mulch-sheet and opening planting holes (diameter of about 5 cm) for permanent planting through the mulch-sheet, the spray solutions prepared as described above were sprayed onto the planting holes such that the amount of treated active ingredient of each spray solution was 0.5 g/m^2 (150 L per 10a), followed by air-drying; subsequently, seedlings of Chinese cabbage (cultivar: Ouraku 60) grown for 4 weeks in cell mold trays (128 holes/nursery box) were planted such that 30 seedlings were planted in each test lot having an area of 2.5 m^2 with two replications.
Preparation was performed by diluting a chemical solution (Agrimycin WP100 [trade name] manufactured by Pfizer) containing oxytetracycline at 1.5% and streptomycin sulfate salt at 18.8% with water to 1/1500.
In a field spread with the agricultural mulch-sheet, Chinese cabbage seedlings (cultivar: Ouraku 60) grown by the same method as in Example 4 were planted by the same method as in Example 4, for spraying the spray solution prepared above in (1) (at each spray volume of 300 L/10a) twice (28 days and 42 days after the planting of the seedlings) on the stems and leaves.
49 days after the start of the tests, all the plants in each lot were examined about the severity level of the disease to assess the frequency of the disease and the disease control value. Herein, the frequency of the disease and the disease control value were determined in the same manner as described above. Because soft rot is a disease with damages hardly controlled, herein, even a chemical at the level C determined by the tests of the effects can practically be used.

Assay [2] relates to soft rot of Chinese cabbage. Briefly: Test for controlling soft rot of Chinese cabbage, Example 3 / Comparative Example 3 (field, cultivar Muso). It is filed as in vivo. The following applies: 500 g ai/10 a, 150 L/10 a sprayed onto planting holes before planting, 51 days after start.
Text: as §1, §2, §3
442 g/l kresoxim-methyl (STROBY FLOWABLE [trade name], manufactured by BASF) was adjusted to 500 g ai/10a (0.5 g/m^2, 1131 ml Product/10a) as the amount of the active ingredient and to 150 L/10a as the volume of diluent water. […]
51 days after the start of the tests, all the plants in each lot were examined about the severity level of the disease to assess the frequency of the disease and the disease control value. The frequency of the disease and the disease control value were determined in the same manner as described above. Because soft rot is a disease with damages hardly controlled, herein, even a chemical at the level C determined by the tests of the effects can practically be used.

The test system of assay [3] is bacteria causing the soft rot (Erwinia carotovora). Briefly: Inhibition test of growth of bacteria causing soft rot, Reference Test Example 4. It is filed as cell-based. The following applies: for formed colonies (growth state), grade: PSA medium, 27 degrees Celsius, 2 days. An excerpt:
An inhibition test of the growth of bacteria causing the soft rot was done, when a control agent was directly applied to the bacteria causing the soft rot. A given volume of each pesticide of kresoxim-methyl (STROBY DF [trade name] manufactured by BASF), thiophanate methyl (Topsin M WP [trade name], manufactured by Nippon Soda Co., Ltd), boscalid (Cantus DF [trade name] manufactured by BASF), procymidone (Sumilex WP [trade name] manufactured by Sumitomo Chemical Agro Co., Ltd.) and streptomycin (Mycin Wettable powder [trade name] manufactured by Hokko Chemical Industry Co., Ltd.) was added together with a suspension of the bacteria causing the soft rot (Erwinia carotovora) to a preliminarily dissolved PSA culture medium (55 degrees Celsius) for subsequent thorough agitation, which was then spread on a plate for culturing at 27 degrees Celsius for 2 days, to examine the growth state. Subsequently, the formed colonies were examined according to the following three grades. • +: at the same level as the level of non-treated lot. Plus or minus: apparently less than the colonies of the non-treated lot. • −: almost no colonies observed.

The record followed here is patent US20130123287A1, “CONTROL AGENT FOR SOFT ROT AND CONTROL METHOD FOR THE SAME” (ISHIHARA SANGYO KAISHA, LTD., priority 2010, published 2013).

For the molecule `CO/N=C(/C(=O)OC)c1ccccc1COc1ccccc1C` [Kresoxim-methyl, methyl=(E)-methoxyimino[2-(o-tolyloxymethyl)phenyl]acetate], the Determination of effect result in assay [1] and in assay [2] was “C (C: Effective at low level (21 to 40 disease control value))” throughout. Also, the “formed colonies (growth state), grade” value in assay [3] (100 ppm active ingredient) was “+, +”; in assay [3] (500 ppm active ingredient), “+, +”; in assay [3] (1000 ppm active ingredient), “+, +”. For the same molecule, in assay [3] (active ingredient concentration of 1,000 ppm), the “inhibition of growth of Erwinia carotovora (in words)” value is reported as “never inhibited the growth”.
